± gives the standard deviation of the averaged measurements.
Tested on: HepaRG
Assay: LDH release cytotoxicity, % of total lysis control; higher = more cytotoxic
Conditions: 48 h
Method in brief: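 Single-lot HepaRG cells in collagen I-coated 96-well plates were treated for 48 h in serum-free induction medium containing 0.5% DMSO with test chemicals in eight-point half-log series up to 100 µM. For total lysis, wells received 0.1% Triton X. LDH in 50 µL spent medium was assayed by resorufin fluorescence with CytoTox-ONE. Percent cytotoxicity was normalized to the on-plate vehicle and total lysis controls, with duplicates averaged.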

CCC(C)OC(=O)N1CCCCC1CCO (configuration not stated) [Icaridin]
Conditions	LDH release cytotoxicity [%]
0.03162 µM	6.64 ± 2.3
0.1 µM	4.72 ± 0.94
0.3162278 µM	4.33 ± 2.2
1 µM	5.97 ± 4
3.16228 µM	5.34 ± 1.5
10 µM	2.82 ± 1.4
31.6228 µM	8.294 ± 0.063
100 µM	9.41 ± 0.56

CC(=O)SC(C(=O)NC1Cc2ccccc2C2CCCC(C(=O)O)N2C1=O)C(C)C (configuration not stated) [Ilepatril]
Conditions	LDH release cytotoxicity [%]
0.03162 µM	-3.01 ± 0.96
0.1 µM	-3.51 ± 0.86
0.3162278 µM	-2.73 ± 1.2
1 µM	-2.08 ± 0.5
3.16228 µM	-2.73 ± 0.96
10 µM	-1.99 ± 0.38
31.6228 µM	-1.05 ± 0.81
100 µM	-0.123 ± 0.4

C=CCOC(Cn1ccnc1)c1ccc(Cl)cc1Cl (configuration not stated) [Imazalil]
Conditions	LDH release cytotoxicity [%]
0.03162 µM	-1.02 ± 1.2
0.1 µM	-0.85 ± 0.77
0.3162278 µM	-0.00888 ± 0.2
1 µM	-0.601 ± 1.6
3.16228 µM	-0.652 ± 0.76
10 µM	0.29 ± 0.16
31.6228 µM	8.422 ± 0.022
100 µM	69.6 ± 12

COCc1cnc(C2=NC(C)(C(C)C)C(=O)N2)c(C(=O)O)c1 (configuration not stated) [Imazamox]
Conditions	LDH release cytotoxicity [%]
0.03162 µM	-0.37 ± 0.36
0.1 µM	-1.71 ± 1.1
0.3162278 µM	-1.61 ± 0.19
1 µM	-1.73 ± 0.34
3.16228 µM	-1.43 ± 0.53
10 µM	-1.49 ± 0.15
31.6228 µM	-2 ± 0.16
100 µM	-0.764 ± 0.39

Cc1cnc(C2=NC(=O)C(C)(C(C)C)N2)c(C(=O)O)c1 (configuration not stated) [Imazapic]
Conditions	LDH release cytotoxicity [%]
0.03162 µM	-0.83 ± 0.63
0.1 µM	-2.27 ± 0.52
0.3162278 µM	-1.6 ± 0.34
1 µM	-1.46 ± 0.11
3.16228 µM	-1.69 ± 0.21
10 µM	-0.919 ± 0.055
31.6228 µM	-0.228 ± 0.13
100 µM	0.017 ± 1.6

CC(C)C1(C)N=C(c2ncccc2C(=O)O)NC1=O (configuration not stated) [Imazapyr]
Conditions	LDH release cytotoxicity [%]
0.03162 µM	-1.83 ± 0.41
0.1 µM	-1.02 ± 0.061
0.3162278 µM	-1.62 ± 0.63
1 µM	-0.872 ± 0.078
3.16228 µM	-0.897 ± 0.67
10 µM	-1.03 ± 0.39
31.6228 µM	-0.823 ± 0.31
100 µM	0.363 ± 0.9

CC(C)C1(C)N=C(c2nc3ccccc3cc2C(=O)O)NC1=O (configuration not stated) [Imazaquin]
Conditions	LDH release cytotoxicity [%]
0.03162 µM	-3.4 ± 0.27
0.1 µM	-3.18 ± 1.6
0.3162278 µM	-1.28 ± 0.9
1 µM	-2.88 ± 1.6
3.16228 µM	-0.995 ± 1
10 µM	-0.807 ± 1.1
31.6228 µM	-0.68 ± 1
100 µM	2.17 ± 0.069

CCc1cnc(C2=NC(C)(C(C)C)C(=O)N2)c(C(=O)O)c1 (configuration not stated) [Imazethapyr]
Conditions	LDH release cytotoxicity [%]
0.03162 µM	-0.727 ± 0.19
0.1 µM	-1.781 ± 0.0048
0.3162278 µM	-1.13 ± 0.36
1 µM	-1.33 ± 0.57
3.16228 µM	-1.54 ± 0.26
10 µM	-1.13 ± 0.26
31.6228 µM	-0.237 ± 0.13
100 µM	0.45 ± 0.53

O=[N+]([O-])/N=C1\NCCN1Cc1ccc(Cl)nc1 [Imidacloprid]
Conditions	LDH release cytotoxicity [%]
0.03162 µM	-2.56 ± 0.29
0.1 µM	-1.08 ± 1.5
0.3162278 µM	-1.14 ± 2.6
1 µM	-1.66 ± 2.5
3.16228 µM	-1.89 ± 1.9
10 µM	-0.694 ± 1.4
31.6228 µM	-0.538 ± 0.36
100 µM	1.58 ± 0.76

[As]#[In] [Indium arsenide]
Conditions	LDH release cytotoxicity [%]
0.03162 µM	0.449 ± 0.65
0.1 µM	-0.971 ± 1.1
0.3162278 µM	0.268 ± 0.68
1 µM	-0.269 ± 0.016
3.16228 µM	0.376 ± 0.79
10 µM	0.749 ± 0.43
31.6228 µM	0.141 ± 0.26
100 µM	1.11 ± 0.32

COC(=O)N(C(=O)N1COC2(C(=O)OC)Cc3cc(Cl)ccc3C2=N1)c1ccc(OC(F)(F)F)cc1 (configuration not stated) [Indoxacarb]
Conditions	LDH release cytotoxicity [%]
0.0253 µM	-0.813 ± 0.062
0.08 µM	0.513 ± 0.93
0.252982 µM	-1.47 ± 0.66
0.8 µM	-0.957 ± 0.72
2.52982 µM	-0.16 ± 1.7
8 µM	-0.511 ± 0.2
25.2982 µM	0.453 ± 1.4
80 µM	14.2 ± 2.2

O=C(NC(Cc1ccccc1)C(O)C(=O)N1CC(O)C(O)C1)c1cc2cc(Cl)ccc2[nH]1 (configuration not stated) [Ingliforib]
Conditions	LDH release cytotoxicity [%]
0.03162 µM	-1.12 ± 1.5
0.1 µM	-2 ± 0.27
0.3162278 µM	-1.41 ± 1.2
1 µM	-0.89 ± 0.66
3.16228 µM	-0.718 ± 0.6
10 µM	-0.896 ± 0.48
31.6228 µM	-1.06 ± 0.19
100 µM	8.47 ± 1.3

COC(=O)c1ccc(I)cc1S(=O)(=O)NC(=O)Nc1nc(C)nc(OC)n1 [Iodosulfuron-methyl-sodium]
Conditions	LDH release cytotoxicity [%]
0.03162 µM	-1.49 ± 0.12
0.1 µM	-0.389 ± 1.6
0.3162278 µM	-1.21 ± 0.34
1 µM	-0.477 ± 0.51
3.16228 µM	-0.16 ± 0.13
10 µM	0.897 ± 0.24
31.6228 µM	0.0334 ± 0.38
100 µM	2.49 ± 0.31

CC(C)NC(=O)N1CC(=O)N(c2cc(Cl)cc(Cl)c2)C1=O [Iprodione]
Conditions	LDH release cytotoxicity [%]
0.03162 µM	-0.45 ± 0.15
0.1 µM	-1.34 ± 0.23
0.3162278 µM	-0.949 ± 0.21
1 µM	-1.27 ± 0.32
3.16228 µM	-1.29 ± 0.11
10 µM	-0.662 ± 0.57
31.6228 µM	1.78 ± 0.13
100 µM	4.73 ± 0.47

CCOP(=S)(OCC)Oc1nc(Cl)n(C(C)C)n1 [Isazofos]
Conditions	LDH release cytotoxicity [%]
0.031623 µM	0.0296 ± 0.94
0.1 µM	-1.65 ± 0.25
0.316228 µM	-2.1 ± 1
1 µM	-2.59 ± 0.06
3.16228 µM	-3.48 ± 0.65
10 µM	-3 ± 0.69
31.6228 µM	-3.67 ± 1.1
100 µM	1.66 ± 0.81

CC=Cc1ccc(O)c(OC)c1 [Isoeugenol]
Conditions	LDH release cytotoxicity [%]
0.03162 µM	-2.86 ± 1.2
0.1 µM	-2.42 ± 0.51
0.3162278 µM	-2.55 ± 0.96
1 µM	-3.05 ± 1.7
3.16228 µM	-2.354 ± 0.0053
10 µM	-2.16 ± 0.6
31.6228 µM	-2.4 ± 0.96
100 µM	-1.84 ± 1.7

NNC(=O)c1ccncc1 [Isoniazid]
Conditions	LDH release cytotoxicity [%]
0.013914 µM	-1.4 ± 0.98
0.044 µM	-0.0891 ± 1.3
0.13914 µM	-1.34 ± 0.49
0.44 µM	-1.05 ± 1.1
1.3914 µM	-1.62 ± 0.34
4.4 µM	-0.682 ± 2
13.914 µM	-0.843 ± 0.11
44 µM	-0.0914 ± 0.33

C=CC(=O)OCCCCCC(C)C [Isooctyl acrylate]
Conditions	LDH release cytotoxicity [%]
0.03162 µM	-1 ± 0.16
0.1 µM	-1.54 ± 0.15
0.3162278 µM	-2.08 ± 0.28
1 µM	-1.07 ± 0.63
3.16228 µM	-1.61 ± 0.64
10 µM	-1.55 ± 0.55
31.6228 µM	-0.382 ± 0.33
100 µM	0.567 ± 1.4

CC(C)CCO [Isopentyl alcohol]
Conditions	LDH release cytotoxicity [%]
0.0317809 µM	-1.55 ± 0.48
0.1005 µM	-1.43 ± 0.1
0.317809 µM	-2.18 ± 0.83
1.005 µM	-2.36 ± 0.33
3.17809 µM	-1.495 ± 0.0016
10.05 µM	-1.51 ± 0.068
31.7809 µM	-1.18 ± 0.042
100.5 µM	-0.0999 ± 0.2
